Here are results for one compound from patent publication US20170360781A1, “PHARMACEUTICAL COMPOSITION COMPRISING BICYCLIC NITROGEN-CONTAINING AROMATIC HETEROCYCLIC AMIDE COMPOUND AS ACTIVE INGREDIENT” (Astellas Pharma Inc., priority 2014, published 2017).

What all share (assay type): in vivo
In test [1] the test system is PIK3CA mutation-positive Colo201 cells derived from human colorectal cancer. Kind of test: Anti-tumor test 2 on mice tumor-bearing human colorectal cancer-derived Colo201 cells. Particulars: Colo201, Balb/c nude mice, 8 mg/kg oral once a day for 21 days, final measuring day. As to the method:
4 to 5 week old male Balb/c nude mice (CHARLES RIVER LABORATORIES JAPAN, INC.) were injected and implanted, under the skin on the back, with 3×10^6 PIK3CA mutation-positive and BRAF mutation-positive RKO cells, or 3×10^6 PIK3CA mutation-positive Colo201 cells, both derived from human colorectal cancer suspended to a mixed solution of PBS and Matrigel (registered trademark) in 1:1. Dividing into groups was performed when the tumor volume reached 100 to 250 mm^3, and administering of the test compounds was started. The test was performed on each of the 5 mice in the solvent group and the compound administered group. By oral administration, 6% cyclodextrin aqueous solution for the solvent group, and 6% cyclodextrin aqueous solution in which the test compound was mixed by the dosage shown in Table 4 for the compound administered group were administered. The administration was performed once a day for 11 days (RKO) or 21 days (Colo201), and the body weight and the tumor diameter were measured twice a week. For calculation of the tumor volume, the formula below was used.
(§1) [Tumor volume(mm^3)]=[major axis of tumor(mm)]×[minor axis of tumor(mm)]^2×0.5
(§2) The inhibition rate of tumor growth was calculated from the average value of the tumor volume according to the formula below.
Inhibition rate of tumor growth(%)=([…]average of tumor volume growth in each group/average of tumor volume growth in solvent group)×100

Test [2] has as its system Human AML-derived KG-1 cells. As to the kind of experiment: Anti-tumor test 1 on tumor-bearing mice transplanted with human AML-derived KG-1 cell. Particulars: KG-1, Balb/c nude mice, final measuring day. As to the method:
4 week old male Balb/c nude mice (CHARLES RIVER LABORATORIES JAPAN, INC.) were injected and implanted, under the skin on the back, with 3×10^6 KG-1 cells, suspended to a mixed solution of PBS and Matrigel (registered trademark) in 1:1. After 16 days of implantation, administering of the test compounds was started. The test was performed on each of the 5 mice in the solvent group (6% cyclodextrin aqueous solution) and the test compound administered group (Test Compound Al was mixed to the solvent group by a dosage of 2, 4, or 8 mg/kg). The administration was performed once a day for 14 days by oral administration, and the body weight and the tumor diameter were measured twice a week. For calculation of the tumor volume, the formula below was used.
as §1
(§3) The inhibition rate of tumor growth and the rate of tumor regression were calculated from the average value of the tumor volume according to the formula below.
(§4) Inhibition rate of tumor growth(%)=(1−average of tumor volume growth in each group/average of tumor volume growth in solvent group)×100
(§5) Rate of tumor regression(%)=(1−average tumor volume in each group on measuring day/average tumor volume in each group when dividing groups)×100

Test [3] has as its system Human AML-derived KG-1 cells. Kind of test: Anti-tumor test 2 on tumor-bearing mice transplanted with human AML-derived KG-1 cell. Particulars: KG-1, Balb/c nude mice, 8 mg/kg oral once a day for 21 days, final measuring day. The procedure:
4 to 5 weeks old male Balb/c nude mice (CHARLES RIVER LABORATORIES JAPAN, INC.) were injected and implanted, under the skin on the back, with 3×10^6 KG-1 cells suspended to a mixed solution of PBS and Matrigel (registered trademark) in 1:1. Dividing into groups was performed when tumor volume reached 100 to 200 mm^3, and administering of the test compounds was started. The test was performed on each of the 5 mice in the solvent group and the compound administered group. By oral administration, 6% cyclodextrin aqueous solution for the solvent group, and 6% cyclodextrin aqueous solution in which the test compound was mixed by the dosage shown in Table 6 for the compound administered group were administered. The administration was performed once a day for 21 days, and the body weight and the tumor diameter were measured twice a week. For calculation of the tumor volume, the formula below was used.
as §1, §3, §4, §5

The subject of test [4] is Human AML-derived MV-4-11 cells. Kind of test: Anti-tumor test 2 on tumor-bearing mice transplanted with human AML-derived MV-4-11 cell. The settings on record: MV-4-11, NOD/SCID mice, 8 mg/kg oral once a day, 14 days after starting the administration. The procedure: 4 to 5 week old male NOD/SCID nude mice (CHARLES RIVER LABORATORIES JAPAN, INC.) were injected and implanted, under the skin on the back, with 5×10^6 MV-4-11 cells suspended to a mixed solution of PBS and Matrigel (registered trademark) in 1:1. Administering of the test compounds was started when tumor volume reached 100 to 250 mm^3. The test was performed on each of the 5 mice in the solvent group and the compound administered group. By oral administration, 6% cyclodextrin aqueous solution for the solvent group, and 6% cyclodextrin aqueous solution in which the test compound was mixed by the dosage shown in Table 8 for the compound administered group were administered. The administration was performed once a day by oral administration, and the body weight and the tumor diameter were measured twice a week. For calculation of the tumor volume, the formula below was used.
as §1, §3, §4, §5
The anti-tumor effect of Test Compounds A1, B1, C1, and D1 on the final measuring day (14 days after starting the administration) is shown in Table 8.

Test [5] has as its system DB cells derived from DLBCL. Kind of test: Anti-tumor test 1 on mice tumor-bearing DLBCL-derived DB cells. The settings on record: Balb/c nude mice, 8 mg/kg oral once a day for 16 days, final measuring day. The procedure:
4 to 5 week old male Balb/c nude mice (CHARLES RIVER LABORATORIES JAPAN, INC.) were injected and implanted, under the skin on the back, with 3×10^6 DB cells or WSU-DLCL-2 cells both derived from DLBCL suspended to a mixed solution of PBS and Matrigel (registered trademark) in 1:1. Dividing into groups was performed when the average tumor volume reached 400 to 500 mm^3, and administering of the test compounds was started. […] The administration was performed once a day for 16 days (DB) or 17 days (WSU-DLCL-2) by oral administration, and the body weight and the tumor diameter were measured twice a week. For calculation of the tumor volume, the formula below was used.
[Tumor volume(mm^3)]=[major axis of tumor(mm)]×[minor axis of tumor (mm)]^2×0.5
The rate of tumor regression was calculated from the average value of the tumor volume according to the formula below.
as §5

In test [6] the test system is Human AML-derived MV-4-11 cells. As to the kind of experiment: Anti-tumor test 1 on tumor-bearing mice transplanted with human AML-derived MV-4-11 cell. Particulars: MV-4-11, NOD/SCID mice, 8 mg/kg oral once a day for 19 days, final measuring day. As to the method: 4 to 5 week old male NOD/SCID nude mice (CHARLES RIVER LABORATORIES JAPAN, INC.) were injected and implanted, under the skin on the back, with 5×10^6 MV-4-11 cells suspended to a mixed solution of PBS and Matrigel (registered trademark) in 1:1. After 7 days of implantation, administering of the test compounds was started. […] The administration was performed once a day for 19 days by oral administration, and the body weight and the tumor diameter were measured twice a week. For calculation of the tumor volume, the formula below was used.
as §1, §2, §4

For the compound `COc1ccc(CN2CCC(c3ccc4[nH]c(C(=O)N5CCN(Cc6ccc(C(F)(F)F)cc6)CC5)nc4c3)CC2)cn1` [Compound A1, (5-{1-[(6-methoxypyridin-3-yl)methyl]piperidin-4-yl}-1H-benzimidazol-2-yl){4-[4-(trifluoromethyl)benzyl]piperazin-1-yl}methanone], the “Inhibition rate Colo201” value in test [1] was 53%. Further, the “Inhibition rate of tumor growth” value is recorded as 54% inhibition in test [2] (2 mg/kg oral once a day for 14 days), 70% inhibition in test [2] (4 mg/kg oral once a day for 14 days), 99% inhibition in test [3] and 96% in test [6]. In addition, the entries for the “Rate of tumor regression” value in test [2] (8 mg/kg oral once a day for 14 days) and in test [4] were 8% regression and 70% regression, respectively. Besides, in test [5], the Regression rate came out at 67%.
